These compounds were tested against T1, RIPK2 enzyme (Homo sapiens, UniProt O43353) (assay: RIPK2 inhibition (ADP-Glo Kinase Assay)). Conditions: RIPK2 5 nM, ATP 150 μM, MBP substrate, read-out: RIPK2 IC50.
T1 construct: purchased Carna 09-128
Format: biochemical
Method in brief: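 Human RIPK2 (5 nM) preincubated with compound 30 min at room temperature in 50 mM HEPES pH 7.5, 10 mM MgCl2, 2 mM DTT, 1 mM EGTA, 0.01% Brij-35, 0.05% BSA; native swine MBP as substrate. ADP formed quantified by ADP-Glo luminescence; percent inhibition relative to DMSO and no-enzyme controls.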

T1 sequence (O43353 1-299 limits assumed): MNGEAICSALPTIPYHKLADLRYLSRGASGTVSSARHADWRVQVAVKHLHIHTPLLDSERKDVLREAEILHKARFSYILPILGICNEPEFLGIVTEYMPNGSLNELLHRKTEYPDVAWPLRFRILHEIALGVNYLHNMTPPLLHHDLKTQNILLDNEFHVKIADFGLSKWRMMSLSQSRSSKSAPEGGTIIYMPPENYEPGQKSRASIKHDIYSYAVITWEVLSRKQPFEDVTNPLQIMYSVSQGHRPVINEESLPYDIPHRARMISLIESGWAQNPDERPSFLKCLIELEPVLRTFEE

Structure (SMILES) | IC50 [nM]
Cc1c(Oc2ccnc3ccc(C(=O)NC4CNC4)cc23)ccc(CC(=O)Nc2cnn(C(C)(C)C)c2)c1F [Compound 405, N-(azetidin-3-yl)-4-(4-(2-((1-(tert-butyl)-1H-pyrazol-4-yl)amino)-2-oxoethyl)-3-fluoro-2-methylphenoxy)quinoline-6-carboxamide] | < 2.5
Cc1c(Oc2ccnc3ccc(C(=O)NC4CC(F)(F)C4)cc23)ccc(CC(=O)Nc2cnn(C(C)(C)C)c2)c1F [Compound 406, 4-(4-(2-((1-(tert-butyl)-1H-pyrazol-4-yl)amino)-2-oxoethyl)-3-fluoro-2-methylphenoxy)-N-(3,3-difluorocyclobutyl)quinoline-6-carboxamide] | < 2.5
Cc1c(Oc2ccnc3ccc(CC4CCNCC4)cc23)ccc(CC(=O)Nc2cnn(C(C)(C)C)c2)c1F [Compound 407, N-(1-(tert-butyl)-1H-pyrazol-4-yl)-2-(2-fluoro-3-methyl-4-((6-(piperidin-4-ylmethyl)quinolin-4-yl)oxy)phenyl)acetamide] | < 2.5
Cc1cc(CC(=O)Nc2cnn(C(C)(C)C)c2)c(F)cc1Oc1ccnc2ccc(CC3CCNCC3)cc12 [Compound 408, N-(1-(tert-butyl)-1H-pyrazol-4-yl)-2-(2-fluoro-5-methyl-4-((6-(piperidin-4-ylmethyl)quinolin-4-yl)oxy)phenyl)acetamide] | < 2.5
Cc1c(Oc2ccnc3ccc(O[C@H]4C[C@H]5CC[C@@H](C4)N5)cc23)ccc(CC(=O)Nc2cnn(C(C)(C)C)c2)c1F [Compound 409, 2-(4-((6-(((1R,3r,5S)-8-azabicyclo[3. 2.1]octan-3-yl)oxy)quinolin-4-yl)oxy)-2-fluoro-3-methyl-pheny1)-N-(1-(tert-butyl)-1H-pyrazol-4-yl)acetamide] | < 2.5
Cc1cc(CC(=O)Nc2cnn(C(C)(C)C)c2)c(F)cc1Oc1ccnc2ccc(O[C@H]3C[C@H]4CC[C@@H](C3)N4)cc12 [Compound 410, 2-(4-((6-(((1R,3r,5S)-8-azabicyclo[3. 2.1]octan-3-yl)oxy)quinolin-4-yl)oxy)-2-fluoro-5-methyl-pheny1)-N-(1-(tert-butyl)-1H-pyrazol-4-yl)acetamide] | < 2.5
Cc1cc(CC(=O)Nc2cnn(C(C)(C)C)c2)c(F)cc1Oc1ccnc2ccc(C(C)(C)C#N)cc12 [Compound 411, N-(1-(tert-butyl)-1H-pyrazol-4-yl)-2-(4-((6-(2-cyanopropan-2-yl)quinolin-4-yl)oxy)-2-fluoro-5-methylphenyl)acetamide] | < 2.5
COc1cc2nccc(Oc3cc(F)c(CC(=O)Nc4cnn(C(C)(C)C)c4)cc3C)c2cc1S(C)(=O)=O [Compound 412, N-(1-(tert-butyl)-1H-pyrazol-4-yl)-2-(2-fluoro-4-((7-methoxy-6-(methylsulfonyl)quinolin-4-yl)oxy)-5-methylphenyl) acetamide] | < 2.5
Cc1cc(CC(=O)Nc2cnn(C(C)(C)C)c2)c(F)cc1Oc1ccnc2ccc(N3CCOC3=O)cc12 [Compound 414, N-(1-(tert-butyl)-1H-pyrazol-4-yl)-2-(2-fluoro-5-methyl-4-((6-(2-oxooxazolidin-3-yl)quinolin-4-yl)oxy)phenyl) acetamide] | < 2.5
Cc1cc(CC(=O)Nc2cnn(C(C)(C)C)c2)c(F)cc1Oc1ccnc2ccc(S(=O)(=O)CC(C)(C)O)cc12 [Compound 415, N-(1-(tert-butyl)-1H-pyrazol-4-yl)-2-(2-fluoro-4-((6-((2-hydroxy-2-methylpropyl)sulfonyl)quinolin-4-yl)oxy)-5-methylphenyl)acetamide] | < 2.5
Cc1cc(CC(=O)Nc2cnn(C(C)(C)C)c2)c(F)cc1Oc1ccnc2ccc(S(=O)(=O)C3CC3)cc12 [Compound 416, N-(1-(tert-butyl)-1H-pyrazol-4-yl)-2-(4-((6-(cyclopropylsulfonyl)quinolin-4-yl)oxy)-2-fluoro-5-methylphenyl)acetamide] | < 2.5
CCS(=O)(=O)c1ccc2nccc(Oc3ccc(CC(=O)Nc4cnn(C(C)(C)C)c4)cc3C(F)F)c2c1 [Compound 417, N-(1-(tert-butyl)-1H-pyrazol-4-yl)-2-(3-(difluoromethyl)-4-((6-(ethylsulfonyl)quinolin-4-yl)oxy)phenyl) acetamide] | < 2.5

Source: patent US12624018B1, “Inhibitors of RIPK2 and medical uses thereof” (Odyssey Therapeutics, Inc., priority 2022, dated 2026)
